Where two headings read alike, the source gives them in different places.
Target: T1, CDK1 (cyclin dependent kinase 1) / cyclin B (Homo sapiens, UniProt P06493)
T1 construct: purchased New England Biolabs 6020; host or cells: insect cells
Test: CDK1 kinase assay
Format: biochemical
Experimental: The term n.d. means not tested.
Assays to test compound inhibition of other kinases were preformed using methods that measure the amount of phosphorylation of a biotinylated peptide substrate. Biotinylated peptide substrates were selected from the literature as appropriate for the enzyme being evaluated. The general procedure used to assay for kinase activity is as follows: A kinase reaction mix was prepared in 50 mM Tris-HCl pH=8, 10 mM MgCl2, 0.1 mM NaVO4, 1 mM DTT, 5-10 μM ATP, 0.25-1 μM biotinylated peptide substrate, 0.2-0.8 μCuries per well ^33P-γ-ATP [2000-3000 Ci/mmol]. Assay conditions vary slightly for each protein kinase, for example, insulin receptor kinase requires 10 mM MnCl2 for activity and Calmodulin-dependent protein kinase requires calmodulin and 2 mM CaCl2. The reaction mixture was dispensed into the wells of a streptavidin coated Flashplate and 1 μl drug stock in 100% DMSO was added to a 100 μl reaction volume resulting in a final concentration of 1% DMSO in the reaction. Enzyme was diluted in 50 mM Tris-HCl pH=8.0, 0.1% BSA and added to each well. The reaction was incubated for one hour at 30° C. in the presence of compound. After one hour the reaction mix was aspirated from the plate and the plate was washed with PBS containing 100 mM EDTA. The plate was read on a scintillation counter to determine ^33P-γ-ATP incorporated into the immobilized peptide. […] A maximum and minimum signal for the assay was determined on each plate. The IC50 was calculated from the dose response curve of the percent inhibition of the maximum signal in the assay according to the formula [max signal−background/test compound signal−background (100)=% inhibition] by graphing the percent inhibition against the log concentration of test compound. Known inhibitor compounds appropriate for the kinase being assayed were also included on each plate.
VEGF-R (vascular endothelial growth factor receptor-2) is a fusion protein containing a polyhistidine tag at the N-terminus followed by amino acids 786-1343 of the rat VEGF-R2 kinase domain (GenBank Accession #U93306). CDK1 (cyclin dependent kinase 1) is isolated from insect cells expressing both the human CDK1 catalytic subunit and its positive regulatory subunit cyclin B (New England Biolabs, Beverly, Mass., Cat. #6020). CDK4 (cyclin dependent kinase 4) contains amino acids 769 to 921 of the mouse […] protein found in the GST-retinoblastoma protein construct (Santa Cruz Biotechnology, Santa Cruz, Calif.; Cat. #SC-4112). Insulin Receptor Kinase consists of residues 941-1313 of the cytoplasmic domain of the beta-subunit of the human insulin receptor (BIOMOL, Plymouth Meeting, Pa., Cat. #SE-195). Protein Kinase A is the catalytic subunit of cAMP dependent protein kinase-A purified from bovine heart (Upstate Biotech, Lake Placid, N.Y., Cat#14-114). PKC (protein kinase-C) is the gamma or beta isoform of the human protein produced in insect cells (BIOMOL, Plymouth Meeting, Pa., Cat. #SE-143). Casein Kinase 1 is a truncation at amino acid 318 of the C-terminal portion of the rat CK1 delta isoform produced in E.coli (New England Biolabs, Beverly, Mass., Cat. #6030). Casein Kinase 2 includes the alpha and beta subunits of the human CK2 protein produced in E.coli (New England Biolabs, Beverly, Mass., Cat. #6010). Calmodulin Kinase (calmodulin-dependent protein kinase 2) is a truncated version of the alpha subunit of the rat protein produced in insect cells (New England Biolabs, Beverly, Mass., Cat. #6060). Glycogen Synthase Kinase-3 is the beta isoform of the rabbit enzyme produced in E. coli (New England Biolabs, Beverly, Mass., Cat. #6040). MAP Kinase is the rat ERK-2 isoform containing a polyhistidine tag at the N-terminus produced in E. coli. and activated by phosphorylation with MEK1 prior to purification (BIOMOL, Plymouth Meeting, Pa., Cat. #SE-137). EGFR (epidermal growth factor receptor) is purified from human A431 cell membranes (Sigma, St. Louis, Mo., Cat.# E3641). […]

[1] = Table 4 kinase selectivity, 10 = approximate value, read-out: IC50, Assay 2 CDK1
[2] = Tables 1-3, >10 or >100 = no 50% inhibition at highest dose tested, read-out: CDK IC50

T1 sequence (P06493 whole entry): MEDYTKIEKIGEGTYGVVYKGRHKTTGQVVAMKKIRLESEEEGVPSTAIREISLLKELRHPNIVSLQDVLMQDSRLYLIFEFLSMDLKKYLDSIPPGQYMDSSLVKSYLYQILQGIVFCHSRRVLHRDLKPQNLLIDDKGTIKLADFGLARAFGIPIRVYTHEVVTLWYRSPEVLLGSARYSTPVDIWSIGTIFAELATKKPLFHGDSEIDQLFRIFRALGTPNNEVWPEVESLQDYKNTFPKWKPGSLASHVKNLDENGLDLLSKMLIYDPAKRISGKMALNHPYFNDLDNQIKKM
T1 sequence (P14635 whole entry partner): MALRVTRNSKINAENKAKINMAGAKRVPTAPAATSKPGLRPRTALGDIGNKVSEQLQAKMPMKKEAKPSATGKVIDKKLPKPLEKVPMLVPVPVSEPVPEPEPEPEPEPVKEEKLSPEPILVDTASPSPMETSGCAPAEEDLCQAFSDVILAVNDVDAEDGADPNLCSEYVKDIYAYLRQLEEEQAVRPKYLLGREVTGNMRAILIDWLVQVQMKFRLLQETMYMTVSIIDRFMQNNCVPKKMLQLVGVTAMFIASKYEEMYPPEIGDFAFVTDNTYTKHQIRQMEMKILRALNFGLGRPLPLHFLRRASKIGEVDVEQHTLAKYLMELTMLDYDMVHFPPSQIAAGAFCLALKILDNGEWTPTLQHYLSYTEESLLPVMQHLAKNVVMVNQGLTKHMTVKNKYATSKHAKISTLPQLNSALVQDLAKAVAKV

IC50 [1] [µM]	IC50 [2] [µM]	Compound
> 100	> 10	Clc1cccc(Nc2cncc(-c3cncc(NCCCn4cncn4)c3)n2)c1 [Cmd 76]
> 10	~10	CN(C)CCNc1cncc(-c2cncc(Nc3cccc(Cl)c3)n2)c1 [Cmd 33, N′-[5-[6-[(3-chlorophenyl)amino]pyrazinyl]-3-pyridinyl]-N^2,N^2-dimethyl-1,2-ethanediamine]
> 100	> 100	OCCCCNc1cncc(-c2cncc(Nc3cccc(Cl)c3)n2)c1 [Cmd 32]
> 100	> 10	Clc1cccc(Nc2cncc(-c3cncc(NCCCc4ccncc4)c3)n2)c1 [Cmd 71]
> 100	> 10	Clc1cccc(Nc2cncc(-c3cncc(NCCCc4cccnc4)c3)n2)c1 [Cmd 72]
6.1	3.24	Clc1cccc(Nc2cncc(-c3cncc(NCCCN4CCCCC4)c3)n2)c1 [Cmd 73]
> 100	> 10	Clc1cccc(Nc2cncc(-c3cncc(NCCCn4cccn4)c3)n2)c1 [Cmd 75]
> 10	5.96	OCCCNc1cncc(-c2cncc(Nc3cccc(Cl)c3)n2)c1 [Cmd 4]

Compound	IC50 [1] [µM]	IC50 [2] [µM]
O=C(NCCCO)c1cncc(-c2cncc(Nc3cccc(Cl)c3)n2)c1 [Cmd 39]	34.8	34.8
CN(C)CCCNc1cncc(-c2cncc(Nc3cccc(Cl)c3)n2)c1 [Cmd 35]	> 10	~10
